The structures appear in SMILES notation.

What is called Kd is the concentration at which binding is half-saturated.

The experiment addresses T1, hGMF-β (human glia maturation factor-β) (Homo sapiens, UniProt P60983).
T1 construct: gene GMFB; amine-coupled to CM5 chip
The experiment in a line: SPR (Biacore T200), GMF-β immobilised on CM5 chip, […] fit. The format is binding. For orientation: In SPR one partner is held on a chip, and binding of the other changes the refractive index at the surface.

T1 sequence (P60983 2-142): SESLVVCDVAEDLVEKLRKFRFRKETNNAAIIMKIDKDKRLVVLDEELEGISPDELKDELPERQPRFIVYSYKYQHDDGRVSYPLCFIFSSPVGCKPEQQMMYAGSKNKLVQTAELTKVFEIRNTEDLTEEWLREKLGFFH

Compound `OCc1cccc2[nH]ncc12` [II, 1-H-indazole-4yl methanol] had a Kd of 20 µM.
